Reference: patent publication US11389449B2, “Treatment of metabolic syndrome with an sGC stimulator” (Cyclerion Therapeutics, Inc., priority 2017, dated 2022)

How the values were obtained:
[1] = system: obese/high fat diet C57Bl/6J mice; experiment: DIO mouse model: fasting plasma biomarkers and liver triglycerides; type: in vivo; conditions: DIO HFD mice, approx 6 mg/kg in diet
From the text: The objective of this animal study was to evaluate the effects of Compound I in the mouse diet induced obesity (DIO) model. Assessments included body weight, food intake, oral glucose tolerance test (OGTT) and fasting plasma biomarkers of metabolic control.
Male C57Bl/6J mice with baseline body weights of 25.0-29.0 grams (lean controls) and 31.5-45.0 grams (obese/high fat diet treated) respectively, were used for this study. The lean mice (n=8) were maintained on a standard chow diet. The obese mice were given 60% high fat diet (HFD) starting at 6 weeks of age. All animals were allowed free access to drinking water and chow. The study was begun when the mice were 12 weeks of age and concluded after 4 weeks (16 weeks of age). The obese control group (n=8 mice) was maintained on HFD. The Compound I group (n=8 obese mice) was treated with HFD containing 90 mg Compound I/kg (an approximate dose of 6 mg/kg). Body weights were determined twice weekly and food intake was measured daily for 28 days. An OGTT was performed on each animal at day 28 or 29 and the animals were sacrificed on the following day. On the terminal day, 3 hour fasted blood was collected for compound concentrations and plasma biomarkers analysis including glucose, insulin and triglycerides. Organs were collected, weighed and snap frozen in liquid nitrogen for further analysis.

[2] = system: patients with stable type 2 diabetes and hypertension; experiment: Open-label Phase 2a trial of escalating doses (NCT02906579), metabolic assessments and tolerability; type: in vivo, human; conditions: for Change Serum Insulin, Mean / Change Serum Insulin, Median: fasting
From the text: The primary objectives of this clinical study (ClinicalTrials.gov Identifier: NCT02906579) were to assess the acute effects of escalating doses of Compound I on endothelial function (using EndoPAT™—Itamar Medical; Caesarea, Israel- to measure fingertip small vessel pulse volume), blood pressure, heart rate/pulse, safety and tolerability in patients with Type 2 diabetes and a history of hypertension. Patients in this trial were on stable medications for glucose control (blood glucose lowering medication) and hypertension (including an ARB or an ACEi). Secondary measurements included assessment of fasting glucose levels, fasting insulin levels, hemoglobin A1C (HbA1C) levels, serum cholesterol levels, serum triglyceride levels, BMI and body weight.
Allocation: non-randomized; Intervention Model: single group assignment; Masking: non (open-label), Primary purpose: treatment. Single cohort of 11 patients confined to unit. Single clinical site.
Clinic Period: The Clinic Period began at Check-in on Day-1 and ended at Discharge on Day 19. Patients who met eligibility criteria based on Screening Visit assessments were admitted to the Study Center on Day-1 for procedures to confirm eligibility and were confined to the Study Center until Discharge on Day 19. Patients received a standard diet for diabetics. On Days 1 to 18, following an overnight fast of ≥8 hours, eligible patients received once-daily study drug. Safety (adverse event [AE] collection, vital signs, fasting glucose, serum insulin, electro cardiograms [ECGs]) and pharmacokinetic (PK) assessments, including blood collections, were performed at pre-specified times daily (see Schedule of Events). Pharmacodynamic assessments was performed on a 3-day cycle that repeated for each of the 6 dosing cycles (see FIG. 29 and Schedule of Events): the first day included supine and standing cuff BP and pulse measurements; the second day include ambulatory BP monitoring (ABPM), and the third day will include EndoPAT assessments of endothelial function. In addition, blood samples were collected for optional determination of exploratory biomarkers, including metabolic markers associated with metabolic syndrome (see Schedule of Events). On Day 19, after assessments were completed, patients were discharged from the Study Center at the Investigator's discretion. Patients were rescreened should they discontinue in the Screening Period due to visit window deviations or other administrative reasons. In addition, laboratory values, ECG values, or BPs that were outside the range specified in the protocol were repeated to confirm eligibility during the screening period at the Investigator's discretion after consultation with the Medical Monitor.
Escalating single doses (in 3-day cycles) of 10, 20, 30, 40 or 50 mg of Compound I. Compound I has previously been described in WO2014144100. Metabolic parameters, including fasting serum glucose levels, fasting serum insulin levels, hemoglobin A1C (HhA1C) levels, serum lipid levels and body weight, were determined on the second day of each 3-day cycle.
Fasting glucose (mg/dL) was measured in serum both enzymatically. Insulin (pmol/L) was measured by ECLIA. Cholesterol (mg/dL) was measured enzymatically. Triglycerides (mg/dL) were measured enzymatically. HbA1c (%) was measured using Roche Tina Quant.
Compound I was administered as multiples of a 5-mg oral tablet dosage form. Placebo was administered as multiples of a 5 mg tablet. Compound I was formulated as a spray dried dispersion formulation as described in WO2017095697.
Patients received orally administered study drug at approximately the same time (±15 minutes) every day in the morning (8 to 10 AM), after an overnight fast of at least 8 hours. Patients took multiple tablets together as needed to complete the total dose. […]

[3] = after escalation 10 to 50 mg over 15 days

OC(CNc1nc(-c2cc(-c3ccon3)n(Cc3ccccc3F)n2)ncc1F)(C(F)(F)F)C(F)(F)F [Compound I]
Fasting plasma glucose ([1]; after 4 weeks): unchanged | plasma insulin change vs obese controls ([1]; after 4 weeks, P<0.01): −53% | plasma triglycerides change vs obese controls ([1]; after 4 weeks, P<0.01): −30% | circulating and liver triglycerides ([1]; compared to obese controls): lowered | Change Serum Insulin, Mean ([2]; 10 mg once daily cycle): 0.2 µIU/mL | Change Serum Insulin, Median ([2]; 10 mg once daily cycle): -0.5 µIU/mL | Change Serum Insulin, Mean ([2]; 20 mg once daily cycle): -0.4 µIU/mL | Change Serum Insulin, Median ([2]; 20 mg once daily cycle): 0.1 µIU/mL | Change Serum Insulin, Mean ([2]; 30 mg once daily cycle): -2.61 µIU/mL | Change Serum Insulin, Median ([2]; 30 mg once daily cycle): -2 µIU/mL | Change Serum Insulin, Mean ([2]; 40 mg once daily cycle): -2.49 µIU/mL | Change Serum Insulin, Median ([2]; 40 mg once daily cycle): -1.9 µIU/mL | Change Serum Insulin, Mean ([2]; 50 mg once daily cycle): -2.7 µIU/mL | Change Serum Insulin, Median ([2]; 50 mg once daily cycle): -0.7 µIU/mL | reduction in mean fasting glucose level between placebo cycle (day 2) and end of treatment ([2]; after escalation 10, 20, 30, 40, 50 mg single oral daily dose): 20% | reduction in mean cholesterol level between baseline (day-1) and end of treatment [2, 3]: 23% | reduction in serum TGs between day-1 (baseline) and day 19 [2, 3]: about 12% | mean reduction of body weight ([2]; by end of treatment day 19): about 3.5 kg | mean serum TG level ([2]; day 19): 122 mg/dL | mean serum cholesterol level ([2]; day 19): 142 mg/dL | Mean fasting glucose level ([2]; day 19 (end of treatment) after escalation 10 to 50 mg once daily): 114 mg/dL | HbA1C mean reduction from baseline ([2]; day 19, actual HbA1C reading): 0.40% | mean body weight relative to baseline (day-1) ([2]; each dosage 10 to 50 mg, cumulative over dose escalation): decreased for all dosages | change between mean serum cholesterol value on day 19 (end of treatment) and day 32 ([2]; follow-up after end of dosing): +43.3 mg/dL | tolerability ([2]; multiple dose escalation 10 to 50 mg once daily): well tolerated
